Measured values published in patent US8853224B2 (priority 2006, dated 2014).

Molecular target: Plasmodium falciparum purine nucleoside phosphorylase (PfPNP) (Plasmodium falciparum (isolate 3D7), UniProt Q8I3X4)
Test: biochemical
From the text: For inhibitors without slow-onset properties, fits to the same equation were made, but using initial reaction rates.

Row | Structure (SMILES) | Kd [µM]
1 | O=c1[nH]cnc2c(CNC[C@@H](O)[C@H](O)CO)c[nH]c12 (racemic) [Example 20.5, 7-(((2RS,3RS)-2,3,4-trihydroxybutylamino)methyl)-3H-pyrrolo[3,2-d]pyrimidin-4(5H)-one] | 32 ± 2
2 | O=c1[nH]cnc2c(CNCC(CO)CO)c[nH]c12 [Example 8, 7-((3-hydroxy-2-(hydroxymethyl)propylamino)methyl)-3H-pyrrolo[3,2-d]pyrimidin-4(5H)-one] | 0.21 ± 0.05
3 | O=c1[nH]cnc2c(CNC[C@H](O)[C@H](O)CO)c[nH]c12 [Example 19.3, 7-(((2S,3R)-2,3,4-trihydroxybutylamino)methyl)-3H-pyrrolo[3,2-d]pyrimidin-4(5H)-one] | 12 ± 2
